Measured values from patent US20250235455A1, “AQUEOUS TICAGRELOR SOLUTIONS, METHOD OF MANUFACTURING AND USES” (HYLORIS DEVELOPMENTS SA, priority 2022, published 2025).

What was measured:
Type in all cases: physicochemical
[1] = Stability of ticagrelor 6 mg/ml in HPβCD 40% w/w, buffer pH 4.5, 5.5, 6.5, stored at 40° C. and 75% RH (HPLC related substances)
Description: HPβCD was dissolved in a buffer solution of pH 4.5, 5.5 or 6.5 prepared separately in water. […] The ticagrelor in buffer solution was filtered through a 0.22 micron filtered and filled in USP Type I glass vials. The vials were stoppered and stored. All precautions were taken during manufacturing, such as N2 purging and avoiding direct exposure to light. The vials were stored at 40° C. and 75% Relative Humidity (RH).
To determine the stability of the formulations, batches were evaluated using a related substance method on HPLC.
A Gradient HPLC method was used to analyze impurities in formulations using a YMC-Pack Pro C18 column (100×4.6 mm, S-3 μm 12 nm). Good separation was obtained for all the impurities. • Amine impurity: (1S,2S,3R,5S)-3-(7-amino-5-(propylsulfanyl)-3H-[1,2,3]triazolo[4,5-d]pyrimidin-3-yl)-5-(2-hydroxyethoxy)cyclopentane-1,2-diol. This is a process related degradant impurity. • Regiomer impurity: (1S, 2S, 3R, 5S)-3-((3-((1R,2S)-2-(3,4-Difluorophenyl)cyclopropyl)-5-(propylsulfanyl)-3H-[1,2,3]triazolo[4,5-d]pyrimidin-7-yl)amino)-5-(2-hydroxyethoxy)cyclopentane-1,2-diol. This is a process related degradant impurity. • Acetal impurity: 2-[[(3aR,4S,6S,6aS)-6-[7-[1R,2S)-2-(3,4-difluorophenyl)-cyclopropyl]amino]-5-(propylsulfanyl)-3H-[1,2,3]triazolo-[4,5-d]pyrimidin-3-yl]-2,2-dimethyltetrahydro-2H-3aHcyclopenta[d][1,3]dioxol-4-yl]oxy]ethan-1-ol.

[2] = pH and osmolality determination in undiluted batches; settings: 19 mM phosphate buffer pH 7.5
Description: From the results obtained in Example 4 it follows that the concentration of excipients may be such that the resulting ticagrelor solution is hypertonic. The osmolality and pH of several batches was checked.

[3] = Diluent tests of 5 mg/ml ticagrelor-cyclodextrin solutions; settings: for Appearance, undiluted: 5 mg/ml; for Appearance in 5% dextrose / Appearance in NaCl 0.9%: diluted to 0.1 mg/ml
Description: 5 mg/ml ticagrelor-cyclodextrin solutions with varying amounts of HPβCD were diluted with normal saline, 5% dextrose solution or Ringer's lactate solution. The stability was screened.

[4] = pH 6.5, T = 2 weeks, 40° C./75% RH
[5] = pH 6.5, T = 4 weeks, 40° C./75% RH

SMILES: CCCSc1nc(N[C@@H]2C[C@H]2c2ccc(F)c(F)c2)c2nnn([C@@H]3C[C@H](OCCO)[C@@H](O)[C@H]3O)c2n1 [Ticagrelor, (1S,2S,3R,5S)-3-{7-[(1R,2S)-2-(3,4-difluorophenyl)cyclopropylamino]5-(propylthio)-3H-(1,2,3)triazolo (4,5-D)pyrimidin-3-yl}-5-(2 hydroxyethoxy)cyclopentane-1,2-diol]
- Oxidative impurity 2 content ([1]; pH 6.5, T = 0): 0.00%
- Regiomer impurity content ([1]; pH 6.5, T = 0): 0.00%
- Sum Impurities >0.05 ([1]; pH 6.5, T = 0): 0.22%
- Total Impurities ([1]; pH 6.5, T = 0): 0.36%
- Triol impurity content ([1]; pH 6.5, T = 0): 0.06%
- Acetal impurity content [1, 4]: 0.06%
- Amine impurity content [1, 4]: 0.05%
- Content of unnamed impurity, relative retention time 1.52 [1, 4]: 0.04%
- Oxidative impurity 1 content [1, 4]: 0.00%
- Oxidative impurity 2 content [1, 4]: 0.00%
- Regiomer impurity content [1, 4]: 0.00%
- Sum Impurities >0.05 [1, 4]: 0.23%
- Total Impurities [1, 4]: 0.41%
- Triol impurity content [1, 4]: 0.06%
- Acetal impurity content [1, 5]: 0.06%
- Amine impurity content [1, 5]: 0.05%
- Content of unnamed impurity, relative retention time 1.52 [1, 5]: 0.03%
- Oxidative impurity 1 content [1, 5]: 0.00%
- Oxidative impurity 2 content [1, 5]: 0.04%
- Regiomer impurity content [1, 5]: 0.35%
- Sum Impurities >0.05 [1, 5]: 0.56%
- Total Impurities [1, 5]: 0.72%
- Triol impurity content [1, 5]: 0.05%
- Assay ([2]; HPβCD 22.5% w/w): 98.15%
- Osmolality undiluted ([2]; HPβCD 22.5% w/w): 392 mOsm/kg
- Total Impurities ([2]; HPβCD 22.5% w/w): 0.39%
- pH undiluted ([2]; HPβCD 22.5% w/w): 7.67
- Assay ([2]; HPβCD 25.0% w/w): 103.23%
- Osmolality undiluted ([2]; HPβCD 25.0% w/w): 493 mOsm/kg
- Total Impurities ([2]; HPβCD 25.0% w/w): 0.41%
- pH undiluted ([2]; HPβCD 25.0% w/w): 7.69
- Assay ([2]; HPβCD 27.5% w/w): 104.27%
- Osmolality undiluted ([2]; HPβCD 27.5% w/w): 549 mOsm/kg
- Total Impurities ([2]; HPβCD 27.5% w/w): 0.42%
- pH undiluted ([2]; HPβCD 27.5% w/w): 7.69
- Assay ([2]; HPβCD 30.0% w/w): 107.64%
- Osmolality undiluted ([2]; HPβCD 30.0% w/w): 638 mOsm/kg
- Total Impurities ([2]; HPβCD 30.0% w/w): 0.44%
- pH undiluted ([2]; HPβCD 30.0% w/w): 7.74
- Assay ([2]; HPβCD 32.5% w/w): 99.26%
- Osmolality undiluted ([2]; HPβCD 32.5% w/w): 813 mOsm/kg
- Total Impurities ([2]; HPβCD 32.5% w/w): 0.41%
- pH undiluted ([2]; HPβCD 32.5% w/w): 7.68
- Appearance, undiluted ([3]; HPβCD 22.5% w/w): Turbid; clear after heating to 40 °C
- Appearance, undiluted ([3]; HPβCD 25.0% w/w): Turbid; clear after heating to 40 °C
- Appearance, undiluted ([3]; HPβCD 27.5% w/w): Turbid; clear after heating to 40 °C
- Appearance, undiluted ([3]; HPβCD 30.0% w/w): Clear solution
- Appearance, undiluted ([3]; HPβCD 32.5% w/w): Clear solution
- Appearance in 5% dextrose ([3]; HPβCD 22.5% w/w): Clear solution
- Appearance in NaCl 0.9% ([3]; HPβCD 22.5% w/w): Turbid
- Appearance in 5% dextrose ([3]; HPβCD 25.0% w/w): Clear solution
- Appearance in NaCl 0.9% ([3]; HPβCD 25.0% w/w): Turbid
- Appearance in 5% dextrose ([3]; HPβCD 27.5% w/w): Clear solution
- Appearance in NaCl 0.9% ([3]; HPβCD 27.5% w/w): Turbid
- Appearance in 5% dextrose ([3]; HPβCD 30.0% w/w): Clear solution
- Appearance in NaCl 0.9% ([3]; HPβCD 30.0% w/w): Turbid
- Appearance in 5% dextrose ([3]; HPβCD 32.5% w/w): Clear solution
- Appearance in NaCl 0.9% ([3]; HPβCD 32.5% w/w): Clear solution
- Appearance with diluent ([3]; Normal saline and Ringer's lactate solution as diluent): turbid solutions
